Where a name gives a salt, the structure may show the parent alone. Read-outs that look alike come from different tables or passages of the source.
Legend:
[1] = tested on: human colon cancer cells COL-2-JCK; assay: Inhibition of colony forming activity in human colon cancer cells; assay type: cell-based; settings: 1 μM test compound, 10 days, sum of colony areas vs control; for inhibition at 1 µM: Homo sapiens, 240 h, read-out: Inhibition Rate (%) against the colony forming activity
Outline: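 COL-2-JCK cells seeded at 300 cells/well and grown 10 days at 37 °C, 5% CO2 with compound at 1 μM final (0.1% DMSO). Colonies stained with crystal violet in formalin; inhibition % = (1 − treated/control colony area)×100.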

Balb/c mice = assay: Prevention of concanavalin A liver injury; assay type: in vivo, mouse; settings: 10 mg/mL suspension at 10 mL/kg, 30 min prior to Con A, plasma 24 hr after Con A; for inhibition in vivo at 10000 µg/mL, 100 mg/kg: Mus musculus, po, 24 h
Outline: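 Female Balb/c mice, 6-8 weeks, 5/group; compound suspended at 10 mg/mL in 0.5% CMC, given orally at 10 mL/kg 30 min before i.v. Con A (2.0 mg/mL, 10 mL/kg). Plasma AST and ALT measured 24 hr after Con A; inhibitory rate calculated against vehicle and untreated groups.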

[2] = read-out: Preventing rate against liver injury, ALT (%)
[3] = read-out: Preventing rate against liver injury, AST (%)

| Compound | inhibition at 1 µM [1] | inhibition in vivo at 10000 µg/mL, 100 mg/kg (Balb/c mice; [2]) | inhibition in vivo at 10000 µg/mL, 100 mg/kg (Balb/c mice; [3]) | other results |
| --- | --- | --- | --- | --- |
| O=C(Nc1ccc(-c2ccc([N+](=O)[O-])cc2)cc1)c1cc([N+](=O)[O-])ccc1Cl [Example 9, N-[4-(4-Nitrophenyl)phenyl)-(2-chloro-5-nitrophenyl)carboxamide] | 29% |  |  |  |
| CCCc1ccc(NC(=O)c2cc([N+](=O)[O-])ccc2Cl)cc1 [Example 15, N-(4-Propylphenyl)-(2-chloro-5-nitrophenyl)carboxamide] | 14% | 39% | 54% |  |
| O=C(Nc1ccc(OC(F)(F)F)cc1)c1cc([N+](=O)[O-])ccc1Cl [Example 18, N-(4-Trifluoromethyloxyphenyl)-(2-chloro-5-nitrophenyl)carboxamide] |  | 39.8% | 24.1% |  |
| Cc1ccc(S(=O)(=O)Nc2ccc(NC(=O)c3cc([N+](=O)[O-])ccc3Cl)cc2)cc1 [Example 32, N-[4-(4-Methylbenzene)sulfonylaminophenyl]-(2-chloro-5-nitrophenyl)carboxamide] |  |  |  | Inhibition Rate (%) against the colony forming activity [1]: 39.0% |
| O=C(Nc1nc2ccc([N+](=O)[O-])cc2s1)c1cc([N+](=O)[O-])ccc1Cl [Example 34, N-(6-Nitrobenzothiazol-2-yl)-(2-chloro-5-nitrophenyl)carboxamide] | 41% |  |  |  |
| O=C(Nc1ccncc1)c1cc([N+](=O)[O-])ccc1Cl [Example 49, N-(4-Pyridyl)-(2-chloro-5-nitrophenyl)carboxamide] |  | 59% | 61% |  |
| O=C(Nc1cnc2ccccc2c1)c1cc([N+](=O)[O-])ccc1Cl [Example 55, N-(3-Quinolinyl)-(2-chloro-5-nitrophenyl)carboxamide] | 8% |  |  |  |
| O=C(Nc1nccc2ccccc12)c1cc([N+](=O)[O-])ccc1Cl [Example 59, N-(Isoquinolin-1-yl)-(2-chloro-5-nitrophenyl)carboxamide] | 94% | 18.7% | 20.5% |  |
| O=C(Nc1nc2cc(Cl)ccc2o1)c1cc([N+](=O)[O-])ccc1Cl [Example 75, N-(5-Chlorobenzoxazol-2-yl)-(2-chloro-5-nitrophenyl)carboxamide] | 65% |  |  |  |
| O=C(Nc1ncc(Br)cn1)c1cc([N+](=O)[O-])ccc1Cl [Example 77, N-(5-Bromopyrimidin-2-yl)-(2-chloro-5-nitrophenyl)carboxamide] | 1% |  |  |  |
| Nc1ccc(-c2ccc(NC(=O)c3cc([N+](=O)[O-])ccc3Cl)cc2)cc1 [Example 88, N-[4-(4-Aminophenyl)phenyl]-(2-chloro-5-nitrophenyl)carboxamide mono-hydrochloride] | 8% | 42.3% | 57% |  |
| Cc1c(C)c2c(c(C)c1O)C(=O)CC(C)(COc1ccc(NC(=O)c3cc([N+](=O)[O-])ccc3Cl)cc1)O2 (stereo not shown) [Example 92, N-[4-(6-Hydroxy-2,5,7,8-tetramethyl-4-oxochroman-2-ylmethoxy)phenyl]-(2-chloro-5-nitrophenyl)carboxamide] | 15% |  |  |  |
| CS(=O)(=O)Nc1ccc(-c2ccc(NC(=O)c3cc([N+](=O)[O-])ccc3Cl)cc2)cc1 [Example 93, N-[4-[4-(Methanesulfonylamino)phenyl]phenyl]-(2-chloro-5-nitrophenyl)carboxamide] | 44% |  |  |  |
| Cc1nnc(NS(=O)(=O)c2ccc(NC(=O)c3cc([N+](=O)[O-])ccc3Cl)cc2)s1 [Example 101, N-[4-[(5-Methyl-[1,3,4]thiadiazol-2-yl)aminosulfonyl]phenyl]-(2-chloro-5-nitrophenyl)carboxamide] | 32% |  |  |  |
| Cc1noc(NS(=O)(=O)c2ccc(NC(=O)c3cc([N+](=O)[O-])ccc3Cl)cc2)c1C [Example 104, N-[4-[(3,4-Dimethylisoxazol-6-yl)aminosulfonyl]phenyl]-(2-chloro-5-nitrophenyl)carboxamide] | 22% |  |  |  |
| O=C(Nc1ccc(N2CCCCC2)cc1)c1cc([N+](=O)[O-])ccc1Cl [Example 114, N-[4-(Piperidin-1-yl)phenyl]-(2-chloro-5-nitrophenyl)carboxamide] | 22% | 32.8% | 50.5% |  |
| CC(=O)Nc1ccc(-c2ccc(NC(=O)c3cc([N+](=O)[O-])ccc3Cl)cc2)cc1 [Example 118, N-[4-(4-Acetylaminophenyl)phenyl]-(2-chloro-5-nitrophenyl)carboxamide] | 41% | 55.8% | 45% |  |
| O=C(Nc1ccc(-c2ccc(NC(=O)c3cc([N+](=O)[O-])ccc3Cl)cc2)cc1)c1ccccc1 [Example 120, N-[4-(4-Benzoylaminophenyl)phenyl]-(2-chloro-5-nitrophenyl)carboxamide] | 44% |  |  |  |
| Cc1ccc2nc(NC(=O)c3cc([N+](=O)[O-])ccc3Cl)sc2c1 [Example 141, N-(6-Methybenzothiazol-2-yl)-(2-chloro-5-nitrophenyl)carboxamide] |  |  |  | Inhibition Rate (%) against the colony forming activity [1]: 47.0% |
| CCc1ccc(S(=O)(=O)Nc2ccc(NC(=O)c3cc([N+](=O)[O-])ccc3Cl)cc2)cc1 [Example 150, N-[4-(4-Ethylbenzenesulfonylamino)phenyl]-(2-chloro-5-nitrophenyl)carboxamide] | 41% |  |  |  |
| CC(=O)c1cccc(NC(=O)c2cc([N+](=O)[O-])ccc2Cl)c1 [Example 156, N-(3-Acetylphenyl)-(2-chloro-5-nitrophenyl)carboxamide] |  | 85.5% | 82.6% |  |
| O=C(Nc1ccc(C(=O)N2CCCCC2)cc1)c1cc([N+](=O)[O-])ccc1Cl [Example 159, N-[4-(Piperidylcarbonyl)phenyl]-(2-chloro-5-nitrophenyl)carboxamide] |  | 78.7% | 91.2% |  |
| CC(C)(C)c1cc(NS(=O)(=O)c2cccc(NC(=O)c3cc([N+](=O)[O-])ccc3Cl)c2)cc(C(C)(C)C)c1O [Example 161, N-[3-[(3,5-di-tert-Butyl-4-hydroxyphenyl)aminosulfonyl]phenyl]-(2-chloro-5-nitrophenyl)carboxamide] |  | 82.8% | 69.3% |  |
| N-[4-[4-(Pyrrolidin-1-ylamino)phenyl]phenyl]-(2-chloro-5-nitrophenyl)carboxamide [Example 171] |  |  |  | Preventing rate against liver injury, ALT (%) (Balb/c mice; oral): 90.0%; Preventing rate against liver injury, AST (%) (Balb/c mice; oral): 102.8% |
